Here are results for 6 molecules from PMC5703966, “Systemic clearance and brain distribution of carbazole-based cyanine compounds as Alzheimer’s disease drug candidates” (Scientific Reports, 2017).

One may read the Papp A→B as the apparent permeability from the apical to the basolateral side of a cell layer. The low end stands for poor permeation, the high end for ready permeation. A word on the efflux ratio: it is the permeability from basolateral to apical divided by that in the opposite direction, in the common usage.

One data set is described as follows: in vitro. The conditions noted are these: human, Caco-2.
A short description of data set [1]: Blood cell partitioning (blood to plasma ratio). To be noted: fresh whole blood, 37 °C. Type of data set: in vitro ADME. On the procedure:
The blood to plasma ratio was determined using the method shown in supplemental information (Supplemental Methods). […] The blood cell partitioning was calculated as follows. […] Plasma, liver microsomes and hepatocyte binding by RED device The stability of the compounds in plasma, liver microsomes and hepatocyte were studied to ensure the reliability of the binding data. Hepatocyte was deactivated by leaving them on a bench for 2 days and going through a freeze thaw cycle thereafter.

The nature of data set [2]: Plasma binding by RED device. Note: tested at 0.4 µM. Type of data set: in vitro ADME, human. The conditions noted are these: human plasma, RED device, 4 h, 37 °C. As for the experimental part: (§1) Nonspecific binding in plasma (f u, plasma), microsomes (f u, mic) and hepatocyte (f u, hep) were determined using the method seen in supplemental information (Supplemental Methods). […]
(§2) All validation compounds were incubated at 37 °C over 4 h, and in triplicate. For […]
(§3) plasma stability, 10 mM DMSO solutions of SLM and SLOH were diluted to 40 µM (10% DMSO). Plasma […]
(§4) shaking water bath (60 oscillations/min approx.). The assay was started by addition of 6 µL aliquots to […]
(§5) the plasma (final DMSO incubation concentration 0.1%). […]
(§6) MS/MS. Natural logarithm of peak area ratios (compound peak area normalized by IS peak area) were plotted against time and half-life calculated. […]
(§7) placed into the sample chamber (indicated by the red ring) with 400 µL of PBS into the adjacent chamber.
(§8) The plate was sealed with a self-adhesive lid and incubated at 37 °C on an orbital shaker (1.5 g approx.) for 4 h. Aliquots (100 µL) were removed from each side of the insert, and analyzed after protein precipitation using 4 folds acetonitrile (ACN) containing berberine chloride as internal standard (IS) by LC-MS/MS (Analytical me thod seen below). The experimental procedure outlined in the Thermo Scientific RED device systems brochure was adopted in the present study . […]

Data set [3] in a line: Plasma binding by RED device. Note: tested at 0.4 µM. Type of data set: in vitro ADME, mouse. To be noted: mouse plasma, RED device, 4 h, 37 °C. On the procedure:
as §1, §2, §3, §4, §5, §6, §7, §8

The nature of data set [4]: Brain distribution by brain slices experiment. Type of data set: in vitro ADME, mouse. To be noted: mouse brain slices, positive controls. On the procedure:
The unbound volume of distribution in the brain (V u, brain) was determined in fresh brain slices using the protocol published by Friden et al.[25].

Take `C[C@H]1O[C@@H](O[C@H]2[C@@H](O)C[C@H](O[C@H]3[C@@H](O)C[C@H](O[C@H]4CC[C@@]5(C)[C@H](CC[C@@H]6[C@@H]5C[C@@H](O)[C@]5(C)[C@@H](C7=CC(=O)OC7)CC[C@]65O)C4)O[C@@H]3C)O[C@@H]2C)C[C@H](O)[C@@H]1O` [Digoxin]: in “in vitro”, the apical-to-basolateral permeability (Papp A→B) at 2 μM turned out to be 3.5 ± 0.34 ×10⁻⁶ cm/s and the efflux ratio at 2 μM came to 5 ± 1.5.
In the case of `CC[C@@]1(O)C(=O)OCc2c1cc1n(c2=O)Cc2cc3c(CN(C)C)c(O)ccc3nc2-1` [Topotecan], in the data set “in vitro”, the apparent permeability from apical to basolateral (Papp A→B) at 2 μM was 1.2 ± 0.09 ×10⁻⁶ cm/s and the efflux ratio at 2 μM was found to be 4.6 ± 1.7.
For `NS(=O)(=O)c1cc(C2(O)NC(=O)c3ccccc32)ccc1Cl` (centres unmarked) [Chlorthalidone, reference compound], the blood plasma ratio at 1 h, 1 μM in data set [1] (human) was found to be 11 ± 3.2; in data set [1] (mouse) it was 6.2 ± 0.2.
On to `CC(C)NCC(O)COc1cccc2ccccc12` (centres unmarked) [Propranolol, reference compound], for which the entries for the “f u,plasma %” value in data set [2] and in data set [3] were 6.50 ± 0.480% and 0.220 ± 0.0200%, respectively. The molecule further had an apparent permeability from apical to basolateral (Papp A→B) at 1 μM in “in vitro” of 17 ± 1.3 ×10⁻⁶ cm/s.
On to `COC(=O)c1ccccc1-c1c2ccc(=N)cc-2oc2cc(N)ccc12` [Rhodamine 123], for which, in “in vitro”, the Papp A→B at 1 μM was determined as 0.73 ± 0.02 ×10⁻⁶ cm/s.
`NCC1(CC(=O)O)CCCCC1` [Gabapentin, reference compound]: the “Unbound brain distribution (Vu, brain)” value in data set [4] is listed as 2.20 ± 1.00 mL/g brain.
